The record followed here is paper PMC5282883, “Droplet-based microfluidic high-throughput screening of heterologous enzymes secreted by the yeast Yarrowia lipolytica” (Microbial Cell Factories, 2017).

Holding throughout (assay): fluorogenic hydrolysis assay, crude supernatant
Assay type in all cases: biochemical
What all share (details): 150 µM substrate, 50 mM acetate buffer pH 4.5, 25 °C

For one assay, the target named is T1, endo-β-1,4-xylanase C (Aspergillus niger, UniProt A2QFV7).
T1 construct: gene xlnC; codon-optimised gene secreted by Yarrowia lipolytica strain JMY4510; crude supernatant

The next assay concerns the target T2, endo-β-1,4-xylanase B (Aspergillus niger, UniProt A2Q7I0).
T2 construct: gene xlnB; codon-optimised gene secreted by Yarrowia lipolytica strain JMY4346; crude supernatant; 22 kDa on SDS-PAGE

In another assay the target is T3, endoglucanase A (Aspergillus niger, UniProt A2R322).
T3 construct: gene eglA; codon-optimised gene secreted by Yarrowia lipolytica strain JMY4343; crude supernatant; 26 kDa on SDS-PAGE
T3 sequence (A2R322 17-239): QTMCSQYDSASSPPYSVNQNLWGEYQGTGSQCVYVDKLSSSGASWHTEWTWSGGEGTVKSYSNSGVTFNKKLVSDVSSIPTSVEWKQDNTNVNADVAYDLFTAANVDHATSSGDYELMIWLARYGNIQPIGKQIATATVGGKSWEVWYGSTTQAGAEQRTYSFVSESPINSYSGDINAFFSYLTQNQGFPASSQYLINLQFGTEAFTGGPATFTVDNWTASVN

T2 sequence (A2Q7I0 19-225): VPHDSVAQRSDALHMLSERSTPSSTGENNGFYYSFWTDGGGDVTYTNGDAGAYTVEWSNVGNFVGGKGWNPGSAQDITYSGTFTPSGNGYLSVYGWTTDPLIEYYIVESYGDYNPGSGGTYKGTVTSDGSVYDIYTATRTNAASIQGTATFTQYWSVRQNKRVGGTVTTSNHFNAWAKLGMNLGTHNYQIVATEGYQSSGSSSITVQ

For `O=c1cc(CS(=O)(=O)O)c2cc(F)c(O[C@@H]3OC[C@@H](O[C@@H]4OC[C@@H](O)[C@H](O)[C@H]4O)[C@H](O)[C@H]3O)c(F)c2o1` [β-D-xylobioside-6,8-difluoro-7-hydroxycoumarin-4-methansulfonate], the “fluorogenic hydrolysis assay, crude supernatant” value at endo-β-1,4-xylanase C is “The JMY4346 (xlnb) and JMY4510 (xlnc) strains exhibited similar levels of endo-β-1,4-xylanase activity”; at endo-β-1,4-xylanase B, “The JMY4346 (xlnb) and JMY4510 (xlnc) strains exhibited similar levels of endo-β-1,4-xylanase activity”.
On to `O=c1cc(CS(=O)(=O)O)c2cc(F)c(O[C@@H]3O[C@H](CO)[C@@H](O[C@@H]4O[C@H](CO)[C@@H](O)[C@H](O)[C@H]4O)[C@H](O)[C@H]3O)c(F)c2o1` [β-D-cellobioside-6,8-difluoro-7-hydroxycoumarin-4-methansulfonate], for which, at endoglucanase A, the “fluorogenic hydrolysis assay, crude supernatant” value is listed as “JMY4343 (egla) displayed a low activity with this substrate”.
